The source of these data is patent US20140018347A1, “BENZOXAZEPINES AS INHIBITORS OF mTOR AND METHODS OF THEIR USE AND MANUFACTURE” (Exelixis, Inc., priority 2010, published 2014).

For orientation: pIC50 means the negative decadic logarithm of the IC50, by convention in mol/L.

Test [1] deals with mTORC1 (Homo sapiens, UniProt P42345). As to the kind of experiment: mTOR/GbL/Raptor (mTORC1) ELISA Assay. The following applies: phosphorylation of 4E-BP1; 0.2 nM mTORC1, 10 μM ATP. It is filed as biochemical. Here is the method: The measurement of mTORC1 enzyme activity was performed in an ELISA assay format following the phosphorylation of 4E-BP1 protein. All experiments were performed in the 384-well format. Generally, 0.5 μL DMSO containing varying concentrations of the test compound was mixed with 15 μL enzyme solution. Kinase reactions were initiated with the addition of 15 μL of substrates-containing solution. The assay conditions were as follows; 0.2 nM mTORC1, 10 μM ATP and 50 nM NHis-tagged 4E-BP1 in 20 mM Hepes, pH 7.2, 1 mM DTT, 50 mM NaCl, 10 mM MnCl2, 0.02 mg/mL BSA, 0.01% CHAPS, 50 mM β-glycerophosphate. Following an incubation of 120 minutes at ambient temperature, 20 μL of the reaction volume was transferred to a Ni-Chelate-coated 384-well plate. The binding step of the 4E-BP1 protein proceeded for 60 minutes, followed by washing 4 times each with 50 μL of Tris-buffered saline solution (TBS). Anti-phospho-4E-BP1 rabbit-IgG (20 μL, 1:5000) in 5% BSA-TBST (0.2% Tween-20 in TBS) was added and further incubated for 60 minutes. Incubation with a secondary HRP-tagged anti-IgG was similarly performed after washing off the primary antibody (4 washes of 50 μL). Following the final wash step with TBST, 20 μL of SuperSignal ELISA Femto (Pierce Biotechnology) was added and the luminescence measured using an EnVision plate reader.

The target of test [2] is PI3Kalpha (Homo sapiens, UniProt P42336). Description: PI3K Biochemical Assays (PI3K-alpha assay). Conditions: ATP consumption, luciferase-luciferin; 1 μM ATP, 10 μM PIP2. As for the experimental part: PI3Kn activity was measured as the percent of ATP consumed following the kinase reaction using luciferase-luciferin-coupled chemiluminescence. Reactions were conducted in 384-well white, medium binding microtiter plates (Greiner). Kinase reactions were initiated by combining test compounds, ATP, substrate (PIP2), and kinase in a 20 μL volume in a buffer solution. The standard PI3Kalpha assay buffer was composed 50 mM Tris, pH 7.5, 1 mM EGTA, 10 mM MgCl2, 1 mM DTT and 0.03% CHAPS. The standard assay concentrations for enzyme, ATP, and substrate were 3 nM, 1 μM, and 10 μM, respectively. The reaction mixture was incubated at ambient temperature for approximately 2 h. Following the kinase reaction, a 10 μL aliquot of luciferase-luciferin mix (Promega Kinase-Glo) was added and the chemiluminescence signal measured using a Victor2 or EnVision (Perkin Elmer). Total ATP consumption was limited to 40-60% and IC50 values of control compounds correlate well with literature references. Substituting PI3Kα with PI3Krβ, PI3Kγ, or PI3Kδ, the inhibitory activity of the compounds for the other isoforms of PI3K were measured. For the PI3Kβ and PI3Kδ assays, enzyme concentrations were 10 nM and 4 nM, respectively. For the PI3Kγ assay, enzyme concentration was 40 nM, the incubation time was 1 h, and the concentration of MgCl2 in the assay buffer was 5 mM.

pIC50: −log10 of the molar value.

Sequence of PI3Kalpha (P42336 whole entry): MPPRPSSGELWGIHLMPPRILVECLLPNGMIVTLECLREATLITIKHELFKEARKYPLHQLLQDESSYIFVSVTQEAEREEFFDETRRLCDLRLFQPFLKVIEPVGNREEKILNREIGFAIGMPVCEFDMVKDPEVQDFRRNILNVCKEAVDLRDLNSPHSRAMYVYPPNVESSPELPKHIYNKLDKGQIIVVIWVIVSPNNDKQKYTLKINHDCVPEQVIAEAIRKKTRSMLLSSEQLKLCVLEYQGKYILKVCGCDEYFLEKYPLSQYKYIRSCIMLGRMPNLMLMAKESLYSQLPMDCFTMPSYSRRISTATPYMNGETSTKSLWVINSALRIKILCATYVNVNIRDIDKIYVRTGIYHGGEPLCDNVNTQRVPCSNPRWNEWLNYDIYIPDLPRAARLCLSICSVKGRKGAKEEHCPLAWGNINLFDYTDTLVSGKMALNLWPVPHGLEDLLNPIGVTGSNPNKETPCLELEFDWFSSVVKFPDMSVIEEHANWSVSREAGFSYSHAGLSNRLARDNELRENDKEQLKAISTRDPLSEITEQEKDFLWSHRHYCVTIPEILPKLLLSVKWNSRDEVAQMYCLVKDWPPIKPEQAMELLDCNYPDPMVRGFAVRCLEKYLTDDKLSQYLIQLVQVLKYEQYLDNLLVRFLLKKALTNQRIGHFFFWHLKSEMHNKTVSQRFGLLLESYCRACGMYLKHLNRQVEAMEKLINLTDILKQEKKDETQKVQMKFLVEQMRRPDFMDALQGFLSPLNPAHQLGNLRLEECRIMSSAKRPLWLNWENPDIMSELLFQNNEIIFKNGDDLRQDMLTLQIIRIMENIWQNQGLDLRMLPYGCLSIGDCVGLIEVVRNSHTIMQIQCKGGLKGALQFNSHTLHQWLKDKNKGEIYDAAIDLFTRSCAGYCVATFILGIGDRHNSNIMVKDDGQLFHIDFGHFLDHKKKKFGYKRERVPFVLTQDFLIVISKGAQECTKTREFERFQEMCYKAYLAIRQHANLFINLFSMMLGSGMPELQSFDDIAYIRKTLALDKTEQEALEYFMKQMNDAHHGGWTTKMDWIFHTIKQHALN
Sequence of PI3Kalpha (P27986 whole entry partner): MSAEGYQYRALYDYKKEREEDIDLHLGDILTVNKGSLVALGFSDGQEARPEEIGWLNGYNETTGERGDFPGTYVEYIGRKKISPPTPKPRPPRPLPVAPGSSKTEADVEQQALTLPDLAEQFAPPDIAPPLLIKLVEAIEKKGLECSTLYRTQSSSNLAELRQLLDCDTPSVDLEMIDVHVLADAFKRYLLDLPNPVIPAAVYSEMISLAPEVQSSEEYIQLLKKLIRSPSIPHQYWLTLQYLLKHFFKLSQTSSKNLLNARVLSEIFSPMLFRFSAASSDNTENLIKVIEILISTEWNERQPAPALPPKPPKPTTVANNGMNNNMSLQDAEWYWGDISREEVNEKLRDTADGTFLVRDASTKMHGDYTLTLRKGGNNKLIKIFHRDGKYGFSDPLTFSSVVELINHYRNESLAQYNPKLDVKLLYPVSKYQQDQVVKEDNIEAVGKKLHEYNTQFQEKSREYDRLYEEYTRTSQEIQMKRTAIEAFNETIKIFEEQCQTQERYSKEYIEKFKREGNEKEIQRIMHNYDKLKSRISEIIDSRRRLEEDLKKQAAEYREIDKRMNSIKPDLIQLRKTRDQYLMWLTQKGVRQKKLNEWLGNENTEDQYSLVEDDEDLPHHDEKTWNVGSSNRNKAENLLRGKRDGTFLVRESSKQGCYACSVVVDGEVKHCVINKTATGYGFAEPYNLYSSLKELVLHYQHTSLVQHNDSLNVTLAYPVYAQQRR

`Cc1nc(CNS(C)(=O)=O)nc(N2CCOc3ccc(-c4cnc5sc(N)nc5c4)cc3C2)c1C(C)C` [Compound 21, N-({4-[7-(2-amino[1,3]thiazolo[5,4-b]pyridin-6-yl)-2,3-dihydro-1,4-benzoxazepin-4(5H)-yl]-6-methyl-5-(1-methylethyl)pyrimidin-2-yl}methyl)methanesulfonamide]: the pIC50 in test [1] and in test [2] was not below 7.00 each time.

For `CC(=O)NCc1nc(C)c(C(C)C)c(N2CCOc3ccc(-c4cnc5sc(N)nc5c4)cc3C2)n1` [Compound 22, N-({4-[7-(2-amino[1,3]thiazolo[5,4-b]pyridin-6-yl)-2,3-dihydro-1,4-benzoxazepin-4(5H)-yl]-6-methyl-5-(1-methylethyl)pyrimidin-2-yl)methyl)acetamide], the pIC50 in test [1] and in test [2] was not below 7.00 in each case.

With `Cc1nc(NS(C)(=O)=O)nc(N2CCOc3ccc(-c4cnc5sc(N)nc5c4)cc3C2)c1C(C)C` [Compound 23, N-{4-(7-(2-amino[1,3]thiazolo[5,4-b]pyridin-6-yl)-2,3-dihydro-1,4-benzoxazepin-4(5H)-yl]-6-methyl-5-(1-methylethyl)pyrimidin-2-yl}methanesulfonamide], the pIC50 in test [1] was not below 7.00; in test [2], 6.30 to 7.00.

Turning to `Cc1nc(S(C)(=O)=O)nc(N2CCOc3ccc(-c4cnc5sc(N)nc5c4)cc3C2)c1C(C)C` [Compound 24, 6-{4-[6-methyl-5-(1-methylethyl)-2-(methylsulfonyl)pyrimidin-4-yl]-2,3,4,5-tetrahydro-1,4-benzoxazepin-7-yl}[1,3]thiazolo[5,4-b]pyridin-2-amine], the pIC50 in test [1] and in test [2] was not below 7.00 in each case.

Consider `Cc1nc(C#N)nc(N2CCOc3ccc(-c4cnc5sc(N)nc5c4)cc3C2)c1C(C)C` [Compound 25, 4-[7-(2-amino[1,3]thiazolo[5,4-b]pyridin-6-yl)-2,3-dihydro-1,4-benzoxazepin-4(5H)-yl)-6-methyl-5-(1-methylethyl)pyrimidine-2-carbonitrile], for which the pIC50 is not below 7.00 in test [1] and 6.30 to 7.00 in test [2].

Consider `COc1ccc2c(N3CCOc4ccc(-c5cnc6sc(N)nc6c5)cc4C3)nc(C)nc2c1` [Compound 26, 6-{4-[2-methyl-7-(methyloxy)quinazolin-4-yl]-2,3,4,5-tetrahydro-1,4-benzoxazepin-7-yl}[1,3]thiazolo[5,4-b]pyridin-2-amine], for which the results for the pIC50 in test [1] and in test [2] were 6.30 to 7.00 and not below 7.00, respectively.

Consider `Cc1nc(CN(C)C)nc(N2CCOc3ccc(-c4cnc5sc(N)nc5c4)cc3C2)c1CC1CC1` [Compound 27, 6-(4-{5-(cyclopropylmethyl)-2-[(dimethylamino)methyl]-6-methylpyrimidin-4-yl}-2,3,4,5-tetrahydro-1,4-benzoxazepin-7-yl)[1,3]thiazolo[5,4-b]pyridin-2-amine], for which the pIC50 in test [1] and in test [2] was not below 7.00 throughout.

On to `Cc1nc(CN2CCCC2)nc(N2CCOc3ccc(-c4cnc5sc(N)nc5c4)cc3C2)c1C(C)C` [Compound 28, 6-{4-[6-methyl-5-(1-methylethyl)-2-(pyrrolidin-1-ylmethyl)pyrimidin-4-yl]-2,3,4,5-tetrahydro-1,4-benzoxazepin-7-yl}[1,3]thiazolo[5,4-b]pyridin-2-amine], for which the pIC50 in test [1] and in test [2] was not below 7.00 in each case.

As to `CCc1nc(N)nc(N2CCOc3ccc(-c4cnc5sc(N)nc5c4)cc3C2)c1C(C)C` [Compound 29, 6-{4-[2-amino-6-ethyl-5-(1-methylethyl)pyrimidin-4-yl]-2,3,4,5-tetrahydro-1,4-benzoxazepin-7-yl}[1,3]thiazolo[5,4-b]pyridin-2-amine], the pIC50 in test [1] and in test [2] was not below 7.00 throughout.

Regarding `C=C(C)c1c(C)nc(N)nc1N1CCOc2ccc(-c3cnc4sc(N)nc4c3)cc2C1` [Compound 30, 6-{4-[2-amino-6-methyl-5-(1-methylethenyl)pyrimidin-4-yl]-2,3,4,5-tetrahydro-1,4-benzoxazepin-7-yl}[1,3]thiazolo[5,4-b]pyridin-2-amine], the pIC50 in test [1] and in test [2] was not below 7.00 each time.

Consider `Cc1c(Cl)nc(N)nc1N1CCOc2ccc(-c3cnc4sc(N)nc4c3)cc2C1` [Compound 31, 6-[4-(2-amino-6-chloro-5-methylpyrimidin-4-yl)-2,3,4,5-tetrahydro-1,4-benzoxazepin-7-yl][1,3]thiazolo[5,4-b]pyridin-2-amine], for which the pIC50 in test [1] was 6.30 to 7.00; in test [2] it was not below 7.00.

Regarding `CCCc1c(C)nc(N)nc1N1CCOc2ccc(-c3cnc4sc(N)nc4c3)cc2C1` [Compound 32], the pIC50 in test [1] and in test [2] was not below 7.00 in each case.

Turning to `CCCc1cnc(N)nc1N1CCOc2ccc(-c3cnc4sc(N)nc4c3)cc2C1` [Compound 33, 6-[4-(2-amino-5-propylpyrimidin-4-yl)-2,3,4,5-tetrahydro-1,4-benzoxazepin-7-yl][1,3]thiazolo[5,4-b]pyridin-2-amine], the pIC50 in test [1] and in test [2] was not below 7.00 in each case.

`C=Cc1cnc(N)nc1N1CCOc2ccc(-c3cnc4sc(N)nc4c3)cc2C1` [Compound 34, 6-[4-(2-amino-5-ethenylpyrimidin-4-yl)-2,3,4,5-tetrahydro-1,4-benzoxazepin-7-yl][1,3]thiazolo[5,4-b]pyridin-2-amine]: the pIC50 in test [1] and in test [2] was not below 7.00 each time.

Take `Cc1cnc(N)nc1N1CCOc2ccc(-c3cnc4sc(N)nc4c3)cc2C1` [Compound 35, 6-[4-(2-amino-5-methylpyrimidin-4-yl)-2,3,4,5-tetrahydro-1,4-benzoxazepin-7-yl][1,3]thiazolo[5,4-b]pyridin-2-amine]: the pIC50 in test [1] was 6.30 to 7.00; in test [2] it was not below 7.00.

`Cc1nc(CN(C)C)nc(N2CCOc3ccc(-c4cnc5sc(N)nc5c4)cc3C2)c1CC(C)C` [Compound 36, 6-(4-{2-[(dimethylamino)methyl]-6-methyl-5-(2-methylpropyl)pyrimidin-4-yl}-2,3,4,5-tetrahydro-1,4-benzoxazepin-7-yl)[1,3]thiazolo[5,4-b]pyridin-2-amine]: the pIC50 is not below 7.00 in test [1] and 6.30 to 7.00 in test [2].

Turning to `Cc1nc(CN(C)C)nc(N2CCOc3ccc(-c4cnc5sc(N)nc5c4)cc3C2)c1-c1ccccc1` [Compound 37, 6-(4-{2-[(dimethylamino)methyl]-6-methyl-5-phenylpyrimidin-4-yl}-2,3,4,5-tetrahydro-1,4-benzoxazepin-7-yl)[1,3]thiazolo[5,4-b]pyridin-2-amine], the pIC50 in test [1] and in test [2] was not below 7.00 throughout.

`Cc1nc(CN(C)C)nc(N2CCOc3ccc(-c4cnc5sc(N)nc5c4)cc3C2)c1CCCF` [Compound 38, 6-(4-{2-[(dimethylamino)methyl]-5-(3-fluoropropyl)-6-methylpyrimidin-4-yl}-2,3,4,5-telrahydro-1,4-benzoxazepin-7-yl)[1,3]thiazolo[5,4-b]pyridin-2-amine]: the pIC50 in test [1] and in test [2] was not below 7.00 throughout.

Consider `Cc1nc(N)nc(N2CCOc3ccc(-c4cnc5sc(N)nc5c4)cc3C2)c1-c1ccccc1` [Compound 39, 6-[4-(2-amino-6-methyl-5-phenylpyrimidin-4-yl)-2,3,4,5-tetrahydro-1,4-benzoxazepin-7-yl][1,3]thiazolo[5,4-b]pyridin-2-amine], for which the pIC50 in test [1] and in test [2] was not below 7.00 each time.

Consider `Cc1nc(N)nc(N2CCOc3ccc(-c4cnc5sc(N)nc5c4)cc3C2)c1-c1cccc(F)c1` [Compound 40, 6-{4-[2-amino-5-(3-fluorophenyl)-6-methylpyrimidin-4-yl]-2,3,4,5-tetrahydro-1,4-benzoxazepin-7-yl}[1,3]thiazolo[5,4-b]pyridin-2-amine], for which the negative logarithm of the IC50 (pIC50) in test [1] and in test [2] was not below 7.00 each time.

For the compound `Cc1nc(N)nc(N2CCOc3ccc(-c4cnc5sc(N)nc5c4)cc3C2)c1C1CC1` [Compound 41, 6-[4-(2-amino-5-cyclopropyl-6-methylpyrimidin-4-yl)-2,3,4,5-tetrahydro-1,4-benzoxazepin-7-yl][1,3]thiazolo[5,4-b]pyridin-2-amine], the pIC50 is 5.60 to 6.30 in test [1] and 6.30 to 7.00 in test [2].
